Data: patent US20250051327A1, “MALT-1 MODULATORS” (EXSCIENTIA AI LIMITED, priority 2020, published 2025)

Key:
[1] = tested on: IL-2 secretion by human effector memory T cells (TEM); test: Effector memory T cells IL-2 release assay; type: cell-based; settings: T-cell; human CD4+ effector memory T cells, CD3/CD28 bead stimulation, 24 h; read-out: CD4TC IL2 IC50
Method in brief: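 Human CD4+ effector memory T cells from healthy-donor buffy coats were stimulated with anti-CD3/CD28 Dynabeads and exposed to 10 semi-log compound doses (0.1% DMSO) for 24 h at 37 °C. Supernatant IL-2 was measured by HTRF, and IC50 came from a 4-parameter logistic fit to maximal IL-2. Viability was checked by flow cytometry.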

[2] = target: Recombinant human MALT-1 (amino acids 340-824) (Homo sapiens (Human), UniProt Q9UDY8); test: MALT-1 inhibition assay (fluorogenic substrate Ac-LRSR-Rh110-DP); type: biochemical; settings: recombinant human MALT-1, substrate Ac-LRSR-Rh110-DP
Method in brief: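 Reactions were started with fluorogenic substrate Ac-LRSR-Rh110-DP (10 μM final) against 3 nM enzyme and kept dark at 25° C for 60 minutes. IC50 values came from 4-parameter logistic fits of percent inhibition calculated from relative fluorescence units.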

Sequence of Recombinant human MALT-1 (amino acids 340-824) (Q9UDY8 340-824): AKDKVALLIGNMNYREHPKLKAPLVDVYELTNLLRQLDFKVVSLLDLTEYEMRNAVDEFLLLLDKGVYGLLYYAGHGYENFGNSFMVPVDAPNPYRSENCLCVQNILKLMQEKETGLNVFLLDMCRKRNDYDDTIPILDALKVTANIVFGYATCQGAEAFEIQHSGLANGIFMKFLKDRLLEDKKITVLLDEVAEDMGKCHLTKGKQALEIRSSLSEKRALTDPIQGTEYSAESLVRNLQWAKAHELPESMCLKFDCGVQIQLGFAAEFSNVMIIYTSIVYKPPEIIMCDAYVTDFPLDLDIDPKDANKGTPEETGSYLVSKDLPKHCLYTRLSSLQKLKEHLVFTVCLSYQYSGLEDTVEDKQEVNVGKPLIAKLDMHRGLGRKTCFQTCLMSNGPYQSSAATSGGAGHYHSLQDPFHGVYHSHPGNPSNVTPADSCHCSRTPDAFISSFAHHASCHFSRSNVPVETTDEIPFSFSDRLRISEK

| SMILES | IC50 [1] | IC50 [2] |
| --- | --- | --- |
| CN(C(=O)C1CCS(=O)(=O)CC1)[C@@H](c1ccc(N2CC(C)(C)Cc3c2cnc2cc(Cl)nn32)cc1)C(F)(F)F [CPD0022149, N-[(1S)-1-(4-{4-chloro-12,12-dimethyl-2,3,7,10-tetraazatricyclo[7.4.0.0^2,6]trideca-1(9),3,5,7-tetraen-10-yl}phenyl)-2,2,2-trifluoroethyl]-N-methyl-1,1-dioxo-1λ^6-thiane-4-carboxamide] | 93 nM | 71 nM |
| CN(C(=O)[C@H]1CCC(=O)N1)[C@@H](c1ccc(N2CCCc3c2cnc2cc(Cl)nn32)cc1)C(F)(F)F (relative stereo) [CPD0073567, (2rel-R)-N-[(1S)-1-(4-{4-chloro-2,3,7,10-tetraazatricyclo[7.4.0.0^2,6]trideca-1(9),3,5,7-tetraen-10-yl}phenyl)-2,2,2-trifluoroethyl]-N-methyl-5-oxopyrrolidine-2-carboxamide] | 119 nM | 35 nM |
| CN(C(=O)[C@H]1CC[S@@](=N)(=O)CC1)[C@@H](c1ccc(N2CCC3(CC3)c3c2cnc2cc(Cl)nn32)cc1)C(F)(F)F [CPD0072772, (1rel-s,4rel-s)-N-[(1S)-1-(4-{4′-chloro-2′,3′,7′, 10′-tetraazaspiro[cyclopropane-1,13′-tricyclo[7.4.0.0^2,6]tridecane]-1′(9′),3′,5′,7′-tetraen-10′-yl}phenyl)-2,2,2-trifluoroethyl]-1-imino-N-methyl-1-oxo-1λ^6-thiane-4-carboxamide] | 27 nM | 27 nM |
